{
  "source": "paper PMC8948292",
  "about": "“Combining PEGylated mito-atovaquone with MCT and Krebs cycle redox inhibitors as a potential strategy to abrogate tumor cell proliferation” (Scientific Reports, 2022)",
  "key": {"U87MG cells": {"test_system": "U87MG cells", "test": "Basal extracellular acidification rate (ECAR) in intact cells", "type": "cell-based, human"}, "[1]": {"molecular_target": "mitochondrial complex III (MiaPaCa-2 cells) (Homo sapiens, UniProt P00156)", "sequence (P00156 whole entry)": "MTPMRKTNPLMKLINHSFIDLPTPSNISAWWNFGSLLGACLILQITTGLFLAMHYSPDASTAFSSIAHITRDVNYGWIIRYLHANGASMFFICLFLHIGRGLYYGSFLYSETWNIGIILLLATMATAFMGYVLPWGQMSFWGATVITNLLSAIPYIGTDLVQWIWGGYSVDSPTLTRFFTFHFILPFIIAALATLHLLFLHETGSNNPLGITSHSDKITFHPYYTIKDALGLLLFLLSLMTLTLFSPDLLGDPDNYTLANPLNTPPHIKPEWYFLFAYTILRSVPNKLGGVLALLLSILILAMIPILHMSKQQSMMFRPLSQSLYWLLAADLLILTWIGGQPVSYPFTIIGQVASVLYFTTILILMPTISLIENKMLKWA", "sequence (P47985 whole entry partner)": "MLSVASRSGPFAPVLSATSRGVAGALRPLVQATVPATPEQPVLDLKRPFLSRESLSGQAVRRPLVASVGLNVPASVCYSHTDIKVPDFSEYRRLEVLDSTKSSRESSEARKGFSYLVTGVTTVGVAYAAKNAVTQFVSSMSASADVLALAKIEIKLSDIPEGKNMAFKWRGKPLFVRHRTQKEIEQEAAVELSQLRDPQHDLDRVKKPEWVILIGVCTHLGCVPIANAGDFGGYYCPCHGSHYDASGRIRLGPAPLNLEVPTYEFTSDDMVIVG", "test": "Complex III-dependent oxygen consumption in permeabilized cells, Seahorse XF-96", "type": "cell-based", "how_it_was_run": "(§1)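 MiaPaCa-2 cells were treated 24 h with Mito-PEG-ATO analogs, and OCR was read on a Seahorse XF-96; basal respiration was taken in intact cells. For complex I, permeabilized cells received 10 mM pyruvate, 1.5 mM malate and 10 mM malonate; for complex III, 0.5 mM duroquinol, 1 µM rotenone and 10 mM malonate, both in mannitol/sucrose buffer. IC50 values were derived from the OCR data.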"}, "[2]": {"molecular_target": "T1, mitochondrial complex III (U87MG cells) (Homo sapiens, UniProt P00156)", "T1 construct": "endogenous in cells; host or cells: U87MG (ATCC HTB-14)", "T1 sequence (P00156 whole entry)": "as the sequence (P00156 whole entry) above", "T1 sequence (P47985 whole entry partner)": "as the sequence (P47985 whole entry partner) above", "test": "Complex III-dependent oxygen consumption, Seahorse XF-96", "type": "cell-based", "experimental": "(§2) Mitochondrial oxygen consumption was measured using the Seahorse XF-96 Extracellular Flux Analyzer (Agilent, North Billerica, MA)[3],[33],[67],[68]. To determine the intact cell mitochondrial function of MiaPaCa-2 cells in response to Mito-PEG-ATO analogs, we used the bioenergetic function assay previously described[2],[3]. […] From these measurements, indices of mitochondrial function were determined as previously described[2],[3]. For mitochondrial complex activities assays, after cells were treated with Mito-PEG-ATO analogs for 24 h, the OCR-based assessment of mitochondrial complex activities was carried out on acutely permeabilized cells in the presence of different mitochondrial substrates, i.e., pyruvate/malate for complex I and duroquinol for complex III[3],[32],[34],[69]. Rotenone, malonate, and antimycin A (Sigma-Aldrich, St. Louis, MO) were used as specific inhibitors of mitochondrial complexes I, II, and III, respectively. Briefly, cells that were intact after treatments were immediately permeabilized using the Seahorse XF Plasma Membrane Permeabilizer (Agilent). The mitochondrial complex I-induced OCR was assayed in mannitol and sucrose buffer[69] containing 10 mM pyruvate and 1.5 mM malate (substrates for complex I) and 10 mM malonate (which inhibits complex II activities). […] The IC50 values were determined as previously reported. […]"}, "MiaPaCa-2 cells [3]": {"test_system": "MiaPaCa-2 cells", "test": "Basal extracellular acidification rate (ECAR) in intact cells", "type": "cell-based, human", "details": "24 h treatment", "experimental": "as §2"}, "[4]": {"test_system": "mitochondrial respiration (OCR) in intact U87MG cells", "test": "Intact cell mitochondrial respiration (basal OCR), Seahorse XF-96", "type": "cell-based, human", "details": "24 h treatment", "experimental": "Mitochondrial oxygen consumption was measured using the Seahorse XF-96 Extracellular Flux Analyzer (Agilent, North Billerica, MA)[3],[33],[67],[68]. To determine the intact cell mitochondrial function of MiaPaCa-2 cells in response to Mito-PEG-ATO analogs, we used the bioenergetic function assay previously described[2],[3]. […] From these measurements, indices of mitochondrial function were determined as previously described[2],[3]. For mitochondrial complex activities assays, after cells were treated with Mito-PEG-ATO analogs for 24 h, the OCR-based assessment of mitochondrial complex activities was carried out on acutely permeabilized cells in the presence of different mitochondrial substrates, i.e., pyruvate/malate for complex I and duroquinol for complex III[3],[32],[34],[69]. Rotenone, malonate, and antimycin A (Sigma-Aldrich, St. Louis, MO) were used as specific inhibitors of mitochondrial complexes I, II, and III, respectively. […] The IC50 values were determined as previously reported.\nFigure S8. […] (b) After eight baseline OCR measurements, the response to mitochondrial modulators (oligomycin, dinitrophenol, and rotenone/antimycin A as described in the Methods section) were recorded. The last three stable baseline OCR reading before oligomycin injection was plotted against the concentration of Mito-PEG4-ATO (red open box). […]"}, "[5]": {"test_system": "mitochondrial respiration (OCR) in intact MiaPaCa-2 cells", "test": "Intact cell mitochondrial respiration (basal OCR), Seahorse XF-96", "type": "cell-based, human", "how_it_was_run": "as §1"}, "[6]": {"test_system": "mitochondrial complex I (U87MG cells)", "test": "Complex I-dependent oxygen consumption, Seahorse XF-96", "type": "cell-based, human", "experimental": "as §2"}, "MiaPaCa-2 cells [7]": {"test_system": "MiaPaCa-2 cells", "test": "Cell proliferation (cell confluence), IncuCyte Live-Cell Analysis System", "type": "cell-based, human", "details": "for Cell confluence (% of control): MiaPaCa-2 cells, control ~90% confluence", "how_it_was_run": "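MiaPaCa-2 cells in DMEM with 10% FBS, plated at 1,000 cells/well in triplicate and adhered overnight, then treated with Mito-PEG-ATO analogs. Confluence imaged label-free over several days, increase in percent confluence serving as proliferation surrogate.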"}},
  "data": [
    {"smiles": "O=C1C(OCCOCCOCCOCC[P+](c2ccccc2)(c2ccccc2)c2ccccc2)=C([C@H]2CC[C@H](c3ccc(Cl)cc3)CC2)C(=O)c2ccccc21.[Br-]", "note": "[Mito-PEG4-ATO, [2-(2-(2-(2-((3-(trans-4-(4-chlorophenyl)cyclohexyl)-1,4-dioxo-1,4-dihydronaphthalen-2-yl)oxy)ethoxy)ethoxy)ethoxy)ethyl]triphenylphosphonium bromide]", "values": [
      {"measurement": "ECAR", "setting": "U87MG cells", "result": "stimulated ECAR"},
      {"measurement": "Complex III activity (OCR, % of control)", "setting": "[1]; 0.02 µM", "result": "98.8 % of control"},
      {"measurement": "Complex III activity (OCR, % of control)", "setting": "[1]; 0.05 µM", "result": "96.0 % of control"},
      {"measurement": "Complex III activity (OCR, % of control)", "setting": "[1]; 0.08 µM", "result": "99.9 % of control"},
      {"measurement": "Complex III activity (OCR, % of control)", "setting": "[1]; 0.16 µM", "result": "96.5 % of control"},
      {"measurement": "Complex III activity (OCR, % of control)", "setting": "[1]; 0.32 µM", "result": "90.1 % of control"},
      {"measurement": "Complex III activity (OCR, % of control)", "setting": "[1]; 0.5 µM", "result": "92.4 % of control"},
      {"measurement": "Complex III activity (OCR, % of control)", "setting": "[1]; 0.8 µM", "result": "76.5 % of control"},
      {"measurement": "Complex III activity (OCR, % of control)", "setting": "[1]; 1.6 µM", "result": "51.9 % of control"},
      {"measurement": "Complex III activity (OCR, % of control)", "setting": "[1]; 5 µM", "result": "24.8 % of control"},
      {"measurement": "IC50", "setting": "[1]; MiaPaCa-2 cells, 24 h treatment, antimycin A-inhibitable OCR, read-out: IC50, complex III-induced oxygen consumption (Complex III activity)", "result": 1700, "unit": "nM"},
      {"measurement": "Complex III-induced oxygen consumption", "setting": "[2]", "result": "inhibited"},
      {"measurement": "ECAR", "setting": "MiaPaCa-2 cells [3]", "result": "stimulated ECAR"},
      {"measurement": "OCR in intact cells", "setting": "[4]", "result": "suppressed"},
      {"measurement": "OCR (pmol/min/µg protein)", "setting": "[5]; 0.003 µM, 24 h treatment, intact MiaPaCa-2 cells, baseline OCR, mean, n=4", "result": 20.44, "unit": "pmol/min/µg protein"},
      {"measurement": "OCR (basal, intact cell mitochondrial respiration)", "setting": "[5]; 0.01 µM, 24 h treatment, intact MiaPaCa-2 cells, mean, n=4", "result": 17.79, "unit": "pmol/min/µg protein"},
      {"measurement": "OCR (basal, intact cell mitochondrial respiration)", "setting": "[5]; 0.03 µM, 24 h treatment, intact MiaPaCa-2 cells, mean, n=4", "result": 17.72, "unit": "pmol/min/µg protein"},
      {"measurement": "OCR (basal, intact cell mitochondrial respiration)", "setting": "[5]; 0.05 µM, 24 h treatment, intact MiaPaCa-2 cells, mean, n=4", "result": 16.82, "unit": "pmol/min/µg protein"},
      {"measurement": "OCR (basal, intact cell mitochondrial respiration)", "setting": "[5]; 0.1 µM, 24 h treatment, intact MiaPaCa-2 cells, mean, n=4", "result": 13.38, "unit": "pmol/min/µg protein"},
      {"measurement": "OCR (basal, intact cell mitochondrial respiration)", "setting": "[5]; 0.2 µM, 24 h treatment, intact MiaPaCa-2 cells, mean, n=4", "result": 9.15, "unit": "pmol/min/µg protein"},
      {"measurement": "OCR (basal, intact cell mitochondrial respiration)", "setting": "[5]; 0.3 µM, 24 h treatment, intact MiaPaCa-2 cells, mean, n=4", "result": 6.10, "unit": "pmol/min/µg protein"},
      {"measurement": "OCR (basal, intact cell mitochondrial respiration)", "setting": "[5]; 0.5 µM, 24 h treatment, intact MiaPaCa-2 cells, mean, n=4", "result": 3.29, "unit": "pmol/min/µg protein"},
      {"measurement": "OCR (basal, intact cell mitochondrial respiration)", "setting": "[5]; 1 µM, 24 h treatment, intact MiaPaCa-2 cells, mean, n=4", "result": 1.41, "unit": "pmol/min/µg protein"},
      {"measurement": "OCR (basal, intact cell mitochondrial respiration)", "setting": "[5]; 3 µM, 24 h treatment, intact MiaPaCa-2 cells, mean, n=4", "result": 0.43, "unit": "pmol/min/µg protein"},
      {"measurement": "OCR (basal, intact cell mitochondrial respiration)", "setting": "[5]; 10 µM, 24 h treatment, intact MiaPaCa-2 cells, mean, n=4", "result": 0.42, "unit": "pmol/min/µg protein"},
      {"measurement": "IC50", "setting": "[5]; Homo sapiens, MIA PaCa-2, 24 h, read-out: IC50, inhibition of basal OCR in intact cells", "result": 260, "unit": "nM"},
      {"measurement": "Complex I-induced oxygen consumption", "setting": "[6]", "result": "inhibited"},
      {"measurement": "IC50", "setting": "MiaPaCa-2 cells [7]; Homo sapiens, MIA PaCa-2, read-out: IC50, inhibition of cell proliferation", "result": 140, "unit": "nM"},
      {"measurement": "Cell confluence (% of control)", "setting": "MiaPaCa-2 cells [7]; 0.005 µM", "result": "100.53 % of control"},
      {"measurement": "Cell confluence (% of control)", "setting": "MiaPaCa-2 cells [7]; 0.02 µM", "result": "101.08 % of control"},
      {"measurement": "Cell confluence (% of control)", "setting": "MiaPaCa-2 cells [7]; 0.05 µM", "result": "100.72 % of control"},
      {"measurement": "Cell confluence (% of control)", "setting": "MiaPaCa-2 cells [7]; 0.08 µM", "result": "98.94 % of control"},
      {"measurement": "Cell confluence (% of control)", "setting": "MiaPaCa-2 cells [7]; 0.16 µM", "result": "29.68 % of control"},
      {"measurement": "Cell confluence (% of control)", "setting": "MiaPaCa-2 cells [7]; 0.32 µM", "result": "3.32 % of control"},
      {"measurement": "Cell confluence (% of control)", "setting": "MiaPaCa-2 cells [7]; 0.48 µM", "result": "3.11 % of control"},
      {"measurement": "Cell confluence (% of control)", "setting": "MiaPaCa-2 cells [7]; 0.8 µM", "result": "3.18 % of control"},
      {"measurement": "Cell confluence (% of control)", "setting": "MiaPaCa-2 cells [7]; 1.6 µM", "result": "2.81 % of control"},
      {"measurement": "Cell confluence (% of control)", "setting": "MiaPaCa-2 cells [7]; 4.8 µM", "result": "2.52 % of control"}
    ]}
  ]
}
